ChEMBL document CHEMBL4308902, “Synthetic approaches to isocarbacyclin and analogues as potential neuroprotective agents against ischemic stroke” (Bioorg Med Chem, 2019)
Activity calls are given as the source filed them. No cut-off for these calls is given here.

Key:
Cortical neurone [1] = assay: Neuroprotection in mouse embryonic cortical neurons assessed as reduction in glucose deprivation-induced cell death; format: functional, cell-based
Cortical neurone [2] = assay: Cytotoxicity against mouse embryonic cortical neurons assessed as reduction in cell viability; format: cell-based
Cortical neurone [3] = assay: Neuroprotection in mouse embryonic cortical neurons assessed as reduction in oxygen and glucose deprivation-induced cell death; format: functional, cell-based

| Compound | Activity (Cortical neurone [1]) | Activity (Cortical neurone [2]) | Activity (Cortical neurone [3]) |
| --- | --- | --- | --- |
| CCCCC[C@H](O)/C=C/[C@@H]1[C@H]2CC(CCCCC(=O)O)=C[C@H]2C[C@H]1O | inactive | Toxic | inactive |
| C=C[C@@H]1[C@H]2CC(CCCCC(=O)O)=C[C@H]2C[C@H]1O | inactive | Toxic | inactive |
| CCCCCC/C=C/[C@@H]1[C@H]2CC(CCCCC(=O)O)=C[C@H]2C[C@H]1O | inactive | Toxic | inactive |
| O=C(O)CCCCC1=C[C@H]2C[C@@H](O)[C@H](/C=C/Cc3ccccc3)[C@H]2C1 | inactive | Toxic | inactive |
| CCCCCCCCCC/C=C/[C@@H]1[C@H]2CC(CCCCC(=O)O)=C[C@H]2C[C@H]1O | inactive | Toxic | inactive |
